# From patent publication US6638957B1, “Use of compounds with a nitrogen-oxygen heterocycle” (Jomaa Pharmaka GmbH, priority 1999, dated 2003)
# Like-named read-outs stand apart in the source and are kept apart here.
# Key:
# [1] = test system: Pseudomonas aeruginosa; assay: antibacterial activity, minimum inhibition concentration in liquid culture; type: cell-based; conditions: read-out: MIC(nM) of bacteria culture (Pseudomonas aeruginosa)
# Experimental: A dilution series comprising the concentrations 500, 100, 50, 10 and 0 μmol 1^−1 of the individual compounds in LB medium is introduced into 5 culture microtubes in a volume of 0,5 ml. The tubes were inoculated with 10 μl of an overnight culture of E. coli K12 and shaken overnight at 37° C. The growth of the bacteria was assessed on the basis of the turbidity of the medium. The minimum concentration causing inhibition of bacterial growth was determined (minimum inhibition concentration MIC)
# The antibacterial activity of P. aeruginosa was determined in the same manner.
# [2] = test system: Plasmodium falciparum; assay: antimalaria activity on in vitro cultures, [3H]-hypoxanthine incorporation; type: cell-based; conditions: 72 h, inhibition of [3H]-hypoxanthine incorporation, 48 + 24 hours, read-out: IC50(nM) of malaria culture (Plasmodium falciparum)
# Experimental: The antimalaria activity of the compounds listed on page 9 was determined on in vitro cultures of the malaria pathogen Plasmodium falciparum. The depressions of a 96-well microtitre plate were charged with in each case 200 μl of an asynchroneous Plasmodium falciparum culture at a parasitaemia of 0,4% and haematokrit of 2%. A serial dilution series of the compounds in triple steps between concentrations of 100 to 0,14 μmol 1^−1 was then prepared. The plates were incubated at 37° C., 3% CO2 and 5% O2 over a period of 48 hours. 30 μl medium supplemented with 27 μCi ml^−1 [^3H]-hypoxanthine were then added to each well. After incubation for 24 hours the parasites were harvested by filtration on a glass fibre filter and the radioactivity which had been incorporated was measured. The inhibition of the growth of parasites was measured as the percentage inhibition of the incorporation of tritium. Inhibition of the growth of the parasites has been determined as percentage inhibition of incorporation of tritium based on a comparison without the substance. The half-maximum inhibitory concentration (IC50) of the substance was determined by extrapolation of the values.
# [3] = target: T1, DOXP reductoisomerase of Escherichia coli (UniProt P56139); assay: inhibition of recombinant DOXP reductoisomerase (NADPH oxidation); type: biochemical; conditions: 1 mM DOXP, 0,3 mM NADPH, pH 7,5; read-out: IC50(nM) of DOXP reductoisomerase from Helicobacter pilori
# T1 sequence (P56139 1-368): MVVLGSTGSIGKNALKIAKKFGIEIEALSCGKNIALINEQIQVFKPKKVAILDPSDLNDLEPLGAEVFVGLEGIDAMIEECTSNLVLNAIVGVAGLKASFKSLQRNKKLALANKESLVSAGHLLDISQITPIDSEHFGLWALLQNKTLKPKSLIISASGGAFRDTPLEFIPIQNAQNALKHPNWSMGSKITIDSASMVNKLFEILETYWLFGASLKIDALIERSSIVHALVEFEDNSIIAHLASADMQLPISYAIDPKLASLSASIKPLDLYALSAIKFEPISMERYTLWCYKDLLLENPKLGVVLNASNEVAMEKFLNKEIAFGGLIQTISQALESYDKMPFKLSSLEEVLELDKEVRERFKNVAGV
# [4] = test system: Galium aperine; assay: herbicidal activity, Erde Vorauflauf; type: in vivo
# Experimental: (§1) The determination of herbicidal activity is performed according to standard procedure. Again the compounds listed on page 9 are tested.
# [5] = test system: Alopecurus myosuroides; assay: herbicidal activity, Erde Vorauflauf; type: in vivo
# Experimental: as §1
# [6] = test system: Abutilon theophrasti; assay: herbicidal activity, Erde Vorauflauf; type: in vivo
# Experimental: as §1
# [7] = test system: Setaria viridis; assay: herbicidal activity, Erde Vorauflauf; type: in vivo
# Experimental: as §1
# [8] = test system: Beta vulgaris; assay: herbicidal activity, Erde Vorauflauf; type: in vivo
# Experimental: as §1
# [9] = test system: Cyperus esculentus; assay: herbicidal activity, Erde Vorauflauf; type: in vivo
# Experimental: as §1
# [10] = test system: Zea mays; assay: herbicidal activity, Erde Vorauflauf; type: in vivo
# Experimental: as §1
# [11] = test system: Sinapis arvensis; assay: herbicidal activity, Erde Vorauflauf; type: in vivo; conditions: Mutarda arvensis
# Experimental: as §1
# [12] = test system: Amaranthus retroflexus; assay: herbicidal activity, Erde Vorauflauf; type: in vivo
# Experimental: as §1
# [13] = test system: Xanthium strumarium; assay: herbicidal activity, Erde Vorauflauf; type: in vivo
# Experimental: as §1
# [14] = test system: Avena fatua; assay: herbicidal activity, Erde Vorauflauf; type: in vivo
# Experimental: as §1
# [15] = test system: Galium aperine; assay: herbicidal activity, Erde Nachauflauf; type: in vivo
# Experimental: as §1
# [16] = test system: Alopecurus myosuroides; assay: herbicidal activity, Erde Nachauflauf; type: in vivo
# Experimental: as §1
# [17] = test system: Abutilon theophrasti; assay: herbicidal activity, Erde Nachauflauf; type: in vivo
# Experimental: as §1
# [18] = test system: Setaria viridis; assay: herbicidal activity, Erde Nachauflauf; type: in vivo
# Experimental: as §1
# [19] = test system: Beta vulgaris; assay: herbicidal activity, Erde Nachauflauf; type: in vivo
# Experimental: as §1
# [20] = test system: Cyperus esculentus; assay: herbicidal activity, Erde Nachauflauf; type: in vivo
# Experimental: as §1
# [21] = test system: Zea mays; assay: herbicidal activity, Erde Nachauflauf; type: in vivo
# Experimental: as §1
# [22] = test system: Sinapis arvensis; assay: herbicidal activity, Erde Nachauflauf; type: in vivo; conditions: Mutarda arvensis
# Experimental: as §1
# [23] = test system: Amaranthus retroflexus; assay: herbicidal activity, Erde Nachauflauf; type: in vivo
# Experimental: as §1
# [24] = test system: Xanthium strumarium; assay: herbicidal activity, Erde Nachauflauf; type: in vivo
# Experimental: as §1
# [25] = test system: Avena fatua; assay: herbicidal activity, Erde Nachauflauf; type: in vivo
# Experimental: as §1
# [26] = test system: Reis; assay: herbicidal activity, Hydro Vorauflauf; type: in vivo
# Experimental: as §1
# [27] = test system: Solanum; assay: herbicidal activity, Hydro Vorauflauf; type: in vivo
# Experimental: as §1
# [28] = test system: Lepidium; assay: herbicidal activity, Hydro Vorauflauf; type: in vivo
# Experimental: as §1
# [29] = test system: Echinochloa; assay: herbicidal activity, Hydro Vorauflauf; type: in vivo
# Experimental: as §1
compound,measurement,setting,value
CC1(C)CON(C(=O)CP(C)(=O)O)C1=O [Compound 1],MIC,"[1]; LB medium, overnight at 37° C., turbidity",500 nM
same,IC50,[2],800 nM
same,IC50,[3],22 nM
same,pest or weed control at 500 g/ha,[4]; 500 Gramm/Hektar,0%
same,pest or weed control at 500 g/ha,[5]; 500 Gramm/Hektar,50%
same,pest or weed control at 500 g/ha,[6]; 500 Gramm/Hektar,0%
same,pest or weed control at 500 g/ha,[7]; 500 Gramm/Hektar,0%
same,plant injury at 500 g/ha,[8]; 500 Gramm/Hektar,30%
same,pest or weed control at 500 g/ha,[9]; 500 Gramm/Hektar,0%
same,plant injury at 500 g/ha,[10]; 500 Gramm/Hektar,0%
same,pest or weed control at 500 g/ha,[11]; 500 Gramm/Hektar,40%
same,pest or weed control at 500 g/ha,[12]; 500 Gramm/Hektar,0%
same,pest or weed control at 500 g/ha,[13]; 500 Gramm/Hektar,0%
same,pest or weed control at 500 g/ha,[14]; 500 Gramm/Hektar,0%
same,pest or weed control at 500 g/ha,[15]; 500 Gramm/Hektar,90%
same,pest or weed control at 500 g/ha,[16]; 500 Gramm/Hektar,50%
same,pest or weed control at 500 g/ha,[17]; 500 Gramm/Hektar,40%
same,pest or weed control at 500 g/ha,[18]; 500 Gramm/Hektar,95%
same,plant injury at 500 g/ha,[19]; 500 Gramm/Hektar,70%
same,pest or weed control at 500 g/ha,[20]; 500 Gramm/Hektar,0%
same,plant injury at 500 g/ha,[21]; 500 Gramm/Hektar,80%
same,pest or weed control at 500 g/ha,[22]; 500 Gramm/Hektar,95%
same,pest or weed control at 500 g/ha,[23]; 500 Gramm/Hektar,0%
same,pest or weed control at 500 g/ha,[24]; 500 Gramm/Hektar,60%
same,pest or weed control at 500 g/ha,[25]; 500 Gramm/Hektar,50%
same,pest or weed control at 1000 g/ha,[26]; 1000 Gramm/Hektar,50%
same,pest or weed control at 1000 g/ha,[27]; 1000 Gramm/Hektar,0%
same,pest or weed control at 1000 g/ha,[28]; 1000 Gramm/Hektar,40%
same,pest or weed control at 1000 g/ha,[29]; 1000 Gramm/Hektar,80%
CC1CON(CCCP(=O)(O)O)C1=O (stereo not shown) [Compound 5],MIC,[1],2200 nM
same,IC50,[2],1200 nM
same,IC50,[3],100 nM
same,pest or weed control at 2000 g/ha,[4]; 2000 Gramm/Hektar,0%
same,pest or weed control at 2000 g/ha,[5]; 2000 Gramm/Hektar,60%
same,pest or weed control at 2000 g/ha,[6]; 2000 Gramm/Hektar,0%
same,pest or weed control at 2000 g/ha,[7]; 2000 Gramm/Hektar,0%
same,plant injury at 2000 g/ha,[8]; 2000 Gramm/Hektar,30%
same,pest or weed control at 2000 g/ha,[9]; 2000 Gramm/Hektar,0%
same,plant injury at 2000 g/ha,[10]; 2000 Gramm/Hektar,0%
same,pest or weed control at 2000 g/ha,[11]; 2000 Gramm/Hektar,50%
same,pest or weed control at 2000 g/ha,[12]; 2000 Gramm/Hektar,0%
same,pest or weed control at 2000 g/ha,[13]; 2000 Gramm/Hektar,0%
same,pest or weed control at 2000 g/ha,[14]; 2000 Gramm/Hektar,0%
same,pest or weed control at 2000 g/ha,[15]; 2000 Gramm/Hektar,70%
same,pest or weed control at 2000 g/ha,[16]; 2000 Gramm/Hektar,80%
same,pest or weed control at 2000 g/ha,[17]; 2000 Gramm/Hektar,40%
same,pest or weed control at 2000 g/ha,[18]; 2000 Gramm/Hektar,95%
same,plant injury at 2000 g/ha,[19]; 2000 Gramm/Hektar,40%
same,pest or weed control at 2000 g/ha,[20]; 2000 Gramm/Hektar,0%
same,plant injury at 2000 g/ha,[21]; 2000 Gramm/Hektar,80%
same,pest or weed control at 2000 g/ha,[22]; 2000 Gramm/Hektar,90%
same,pest or weed control at 2000 g/ha,[23]; 2000 Gramm/Hektar,30%
same,pest or weed control at 2000 g/ha,[24]; 2000 Gramm/Hektar,60%
same,pest or weed control at 2000 g/ha,[25]; 2000 Gramm/Hektar,40%
same,pest or weed control at 4000 g/ha,[26]; 4000 Gramm/Hektar,40%
same,pest or weed control at 4000 g/ha,[27]; 4000 Gramm/Hektar,0%
same,pest or weed control at 4000 g/ha,[28]; 4000 Gramm/Hektar,40%
same,pest or weed control at 4000 g/ha,[29]; 4000 Gramm/Hektar,60%
